From the supplement of paper PMC10307832

Key:
Assay in all cases: relative viability (nuclei count vs DMSO), 5 days (fraction); higher = more cells survive
[1] = tested on: 201T
Summary of the method: (§1)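 The day after seeding in 1536-well plates, lung cancer cell lines were treated by pin tool with a single drug, or with a fixed anchor-drug dose together with five library-drug doses (not always all listed) in √10 steps. After 5 days, a combined fix-and-stain solution (final 0.05% Triton X-100, 1% formaldehyde, 1 ug/ml Hoechst) was added. Nuclei counted on 4× images gave relative viability as treated counts over vehicle counts, reported as the median of duplicate plates.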

[2] = tested on: A-427
Summary of the method: as §1

[3] = tested on: COR-L23
Summary of the method: as §1

[4] = tested on: HARA
Summary of the method: as §1

[5] = tested on: HCC-78
Summary of the method: as §1

[6] = tested on: LCLC-103H
Summary of the method: as §1

[7] = tested on: LCLC-97TM1
Summary of the method: as §1

[8] = tested on: LK-2
Summary of the method: as §1

[9] = tested on: LOU-NH91
Summary of the method: as §1

[10] = tested on: LXF-289
Summary of the method: as §1

[11] = tested on: NCI-H1650
Summary of the method: as §1

[12] = tested on: NCI-H1651
Summary of the method: as §1

[13] = tested on: NCI-H1793
Summary of the method: as §1

[14] = tested on: NCI-H2347
Summary of the method: as §1

[15] = tested on: NCI-H23
Summary of the method: as §1

[16] = tested on: NCI-H2405
Summary of the method: as §1

[17] = tested on: NCI-H520
Summary of the method: as §1

[18] = tested on: NCI-H522
Summary of the method: as §1

[19] = tested on: NCI-H647
Summary of the method: as §1

[20] = tested on: NCI-H838
Summary of the method: as §1

[21] = tested on: PC-3 [JPC-3]
Summary of the method: as §1

[22] = tested on: RERF-LC-KJ
Summary of the method: as §1

[23] = tested on: UMC-11
Summary of the method: as §1

CCNC(=O)c1noc(-c2cc(C(C)C)c(O)cc2O)c1-c1ccc(CN2CCOCC2)cc1 [Luminespib] + N=C(N)NC(=N)NCCc1ccccc1 [Phenformin] (partner 250 µM) showed a relative viability ([1]; first compound 0.002 µM) of 0.396, a relative viability ([1]; first compound 0.006325 µM) of 0.465 and a relative viability ([1]; first compound 0.02 µM) of 0.477. The relative viability ([1]; first compound 0.06325 µM) was 0.373, the relative viability ([1]; first compound 0.2 µM) was 0.24 and the relative viability ([2]; first compound 0.002 µM) was 0.354. It also gave a relative viability ([2]; first compound 0.006325 µM) of 0.377, a relative viability ([2]; first compound 0.02 µM) of 0.275 and a relative viability ([2]; first compound 0.06325 µM) of 0.101. For the same compound, the relative viability ([2]; first compound 0.2 µM) was 0.128, the relative viability ([3]; first compound 0.002 µM) was 0.456 and the relative viability ([3]; first compound 0.006325 µM) was 0.367. The relative viability ([3]; first compound 0.02 µM) was 0.457, the relative viability ([3]; first compound 0.06325 µM) was 0.0668 and the relative viability ([3]; first compound 0.2 µM) was 0.0674. The relative viability ([4]; first compound 0.002 µM) was 0.484, the relative viability ([4]; first compound 0.006325 µM) was 0.422 and the relative viability ([4]; first compound 0.02 µM) was 0.485. For the same compound, the relative viability ([4]; first compound 0.06325 µM) was 0.245, the relative viability ([4]; first compound 0.2 µM) was 0.0594 and the relative viability ([5]; first compound 0.002 µM) was 0.689. It also gave a relative viability ([5]; first compound 0.006325 µM) of 0.52, a relative viability ([5]; first compound 0.06325 µM) of 0.767 and a relative viability ([5]; first compound 0.2 µM) of 0.257. The relative viability ([6]; first compound 0.002 µM) was 0.322, the relative viability ([6]; first compound 0.006325 µM) was 0.361 and the relative viability ([6]; first compound 0.02 µM) was 0.351. For the same compound, the relative viability ([6]; first compound 0.06325 µM) was 0.353, the relative viability ([6]; first compound 0.2 µM) was 0.188 and the relative viability ([7]; first compound 0.002 µM) was 0.399. It also gave a relative viability ([7]; first compound 0.006325 µM) of 0.374, a relative viability ([7]; first compound 0.02 µM) of 0.426 and a relative viability ([7]; first compound 0.06325 µM) of 0.428. For the same compound, the relative viability ([7]; first compound 0.2 µM) was 0.102, the relative viability ([8]; first compound 0.002 µM) was 0.474 and the relative viability ([8]; first compound 0.006325 µM) was 0.436. It also gave a relative viability ([8]; first compound 0.02 µM) of 0.252, a relative viability ([8]; first compound 0.06325 µM) of 0.0992 and a relative viability ([8]; first compound 0.2 µM) of 0.141. For the same compound, the relative viability ([9]; first compound 0.002 µM) was 0.741, the relative viability ([9]; first compound 0.006325 µM) was 0.716 and the relative viability ([9]; first compound 0.02 µM) was 0.525. The relative viability ([9]; first compound 0.06325 µM) was 0.287, the relative viability ([9]; first compound 0.2 µM) was 0.322 and the relative viability ([10]; first compound 0.002 µM) was 0.429. The relative viability ([10]; first compound 0.006325 µM) was 0.482, the relative viability ([10]; first compound 0.02 µM) was 0.593 and the relative viability ([10]; first compound 0.06325 µM) was 0.163. For the same compound, the relative viability ([10]; first compound 0.2 µM) was 0.0721, the relative viability ([11]; first compound 0.002 µM) was 0.48 and the relative viability ([11]; first compound 0.006325 µM) was 0.219. It also gave a relative viability ([11]; first compound 0.02 µM) of 0.165, a relative viability ([11]; first compound 0.06325 µM) of 0.15 and a relative viability ([11]; first compound 0.2 µM) of 0.159. It also gave a relative viability ([12]; first compound 0.002 µM) of 0.298, a relative viability ([12]; first compound 0.006325 µM) of 0.293 and a relative viability ([12]; first compound 0.02 µM) of 0.304. The relative viability ([12]; first compound 0.06325 µM) was 0.108, the relative viability ([12]; first compound 0.2 µM) was 0.141 and the relative viability ([13]; first compound 0.002 µM) was 0.367. The relative viability ([13]; first compound 0.006325 µM) was 0.373, the relative viability ([13]; first compound 0.02 µM) was 0.151 and the relative viability ([13]; first compound 0.06325 µM) was 0.102. For the same compound, the relative viability ([13]; first compound 0.2 µM) was 0.138, the relative viability ([14]; first compound 0.002 µM) was 0.406 and the relative viability ([14]; first compound 0.006325 µM) was 0.269. For the same compound, the relative viability ([14]; first compound 0.02 µM) was 0.417, the relative viability ([14]; first compound 0.06325 µM) was 0.381 and the relative viability ([14]; first compound 0.2 µM) was 0.198. It also gave a relative viability ([15]; first compound 0.002 µM) of 0.821, a relative viability ([15]; first compound 0.006325 µM) of 0.727 and a relative viability ([15]; first compound 0.02 µM) of 0.611. For the same compound, the relative viability ([15]; first compound 0.06325 µM) was 0.359, the relative viability ([15]; first compound 0.2 µM) was 0.16 and the relative viability ([16]; first compound 0.002 µM) was 0.417. It also gave a relative viability ([16]; first compound 0.006325 µM) of 0.314, a relative viability ([16]; first compound 0.02 µM) of 0.514 and a relative viability ([16]; first compound 0.06325 µM) of 0.193. The relative viability ([16]; first compound 0.2 µM) was 0.196, the relative viability ([17]; first compound 0.002 µM) was 0.634 and the relative viability ([17]; first compound 0.006325 µM) was 0.537. It also gave a relative viability ([17]; first compound 0.02 µM) of 0.248, a relative viability ([17]; first compound 0.06325 µM) of 0.138 and a relative viability ([17]; first compound 0.2 µM) of 0.191. The relative viability ([18]; first compound 0.002 µM) was 0.707, the relative viability ([18]; first compound 0.006325 µM) was 0.657 and the relative viability ([18]; first compound 0.02 µM) was 0.601. For the same compound, the relative viability ([18]; first compound 0.06325 µM) was 0.546, the relative viability ([18]; first compound 0.2 µM) was 0.362 and the relative viability ([19]; first compound 0.002 µM) was 0.396. The relative viability ([19]; first compound 0.006325 µM) was 0.504, the relative viability ([19]; first compound 0.02 µM) was 0.429 and the relative viability ([19]; first compound 0.06325 µM) was 0.0796. It also gave a relative viability ([19]; first compound 0.2 µM) of 0.0823, a relative viability ([20]; first compound 0.002 µM) of 0.664 and a relative viability ([20]; first compound 0.006325 µM) of 0.55. The relative viability ([20]; first compound 0.02 µM) was 0.257, the relative viability ([20]; first compound 0.06325 µM) was 0.107 and the relative viability ([20]; first compound 0.2 µM) was 0.114. For the same compound, the relative viability ([21]; first compound 0.002 µM) was 0.463, the relative viability ([21]; first compound 0.006325 µM) was 0.457 and the relative viability ([21]; first compound 0.02 µM) was 0.462. It also gave a relative viability ([21]; first compound 0.06325 µM) of 0.472, a relative viability ([21]; first compound 0.2 µM) of 0.242 and a relative viability ([22]; first compound 0.002 µM) of 0.409. For the same compound, the relative viability ([22]; first compound 0.006325 µM) was 0.418, the relative viability ([22]; first compound 0.02 µM) was 0.512 and the relative viability ([22]; first compound 0.06325 µM) was 0.25. For the same compound, the relative viability ([22]; first compound 0.2 µM) was 0.238, the relative viability ([23]; first compound 0.002 µM) was 0.346 and the relative viability ([23]; first compound 0.006325 µM) was 0.338. For the same compound, the relative viability ([23]; first compound 0.02 µM) was 0.291, the relative viability ([23]; first compound 0.06325 µM) was 0.213 and the relative viability ([23]; first compound 0.2 µM) was 0.168.
